Columns and labels:
[1] = system: human colorectal cancer cells HCT116; assay: In vivo combination study, HCT116 KRAS mutant colorectal cancer xenograft model; conditions: oral, 28 days, single agent
Description: More specifically, the compound of Example 1 is tested in combination with either the pan-RAF inhibitor compound or the CDK4/6 inhibitor compound in HCT116, a KRAS mutant colorectal cancer xenograft model. Also, the compound of Example 1 is tested in combination with either the CDK4/6 inhibitor compound or DC101 in NCI-H441, A549, and NCI-H2122, KRAS mutant non-small cell lung cancer (NSCLC) xenograft models.
The HCT116 combination efficacy study is done in athymic nude rats. Expand human colorectal cancer cells HCT116 (ATCC, #CCL-247) in culture, harvest and inject 5×10e^6 cells in 200 μL of 1:1 HBSS+matrigel solution subcutaneously on to the rear right flank of female NIH nude rats (120-145 gm, Taconic Farms). Measure tumor growth and body weight twice per week beginning the seventh day after the implantation. When average tumor sizes reach 200-300 mm^3, randomize animals and group into groups of five to seven animals. Prepare test compound in an appropriate vehicle (see below) and administer by oral gavage for 21 to 28 days. Tumor response is determined by tumor volume measurement performed twice a week during the course of treatment. Vehicle used in this study is 1% HEC (hydroxy ethyl cellulose)/0.25% Tween® 80/0.05% Antifoam. The compound of Example 1 and the pan-RAF inhibitor compound are formulated in 1% HEC/0.25% Tween® 80/0.05% Antifoam. The CDK4/6 inhibitor compound is formulated in 1% HEC in 25 mM Sodium phosphate buffer, pH 2.

[2] = system: RSK1 phosphorylation in HCT116 tumor xenograft; assay: In Vivo Target Inhibition (IVTI) Assay (pRSK1 ELISA Assay); design: species or system female athymic nude mice; conditions: oral dosing
Description: The purpose of this assay is to measure the ability of a test compound to inhibit ERK1/2 substrate phosphorylation in an animal model Implant female athymic nude mice (22-25 g) from Harlan Laboratories with 5×10e^6 HCT116 colorectal cancer cells (ATCC, #CCL-247) subcutaneously in the right flank region in 200 μL of 1:1 Hank's Balanced Salt Solution (HBSS)+Matrigel solution. Measure tumor growth and body weight twice per week beginning the seventh day after the implantation. When tumor sizes reach 300-500 mm^3, randomize animals and group into groups of five animals. […]
Pulverize tumors in liquid nitrogen and lyse in 1× lysis buffer (MSD, #R60TX-3) containing 1× halt protease & phosphatase inhibitor cocktail (Thermo Scientific, #0861281), 1 mM phenylmethanesulfonyl fluoride (PMSF) (Sigma, #93482-50ML-F) and 1 μM sodium metavanadate (Sigma, #590088) using Matrix D beads (MP Biomedical, #6913-500) in a FastPrep-24™ Cell Disrupter machine (MP Biomedical) in a cold room (4° C.). […] Cool plate to room temperature and measure the absorbance at or near 562 nm on a plate reader (Envision plate reader from Perkin Elmer). Subtract the average 562 nm absorbance measurement of the blank standard replicates from the 562 nm measurements of all other individual standard and unknown (cell or tumor lysate) sample replicates. […]

Q: How did the “Delta T/C %” value ([1]; 10 mg/kg QD) turn out when `Cn1nccc1Nc1nccc(-c2cc3c(s2)C(C)(C)N(CCN2CCOCC2)C3=O)n1` [Example 1, 6,6-Dimethyl-2-{2-[(1-methyl-1H-pyrazol-5-yl)amino]pyrimidin-4-yl}-5-[2-(morpholin-4-yl)ethyl]-5,6-dihydro-4H-thieno[2,3-c]pyrrol-4-one] was run?
A: 48%

Q: And the TGI % ([1]; 10 mg/kg QD)?
A: 52%

Q: And the “Delta T/C %” value ([1]; 20 mg/kg QD)?
A: 36%

Q: What about the TGI % ([1]; 20 mg/kg QD) of the same compound?
A: 64%

Q: And the “TED50, pRSK1 inhibition in tumor” value [2]?
A: 16 mg/kg
